The results in this text go back to patent US20110098332A1, “Insecticides for Increasing the Crop Yield” (BASF SE, priority 2007, published 2011).

Assay [1] relates to Winter wheat (cultivar Türkis). Briefly: Crop yield in winter wheat after seed treatment (field trial). The assay is classed as in vivo. The following applies: seed treatment 50 ml/100 kg seeds (Regent FS 500, 25 g per 100 kg seeds), harvest 269 days after planting. The source says:
(§1) The N-min analysis method used in the examples determines the content of mineral nitrogen compounds in the soil (0-90 cm depth) at the beginning of the vegetative period. For this purpose, samples are taken in a depth of 0 to 90 cm and mineral nitrogen compounds (ammonium compounds and nitrates) are extracted and analyzed. The method is described in R. Thun et al., “Die Untersuchung von Böden, Methodenbuch Bd. 1, 4th edition 1991, edition VDLUFA (Verband Deutscher Landwirtschaftlicher Untersuchungs- and Forschungsanstalten), Darmstadt, Germany.
Winter wheat seeds (cultivar Türkis) were treated with fipronil (used as commercially available product Regent FS 500; an FS formulation containing 500 g/l of active ccompound; 25 g per 100 kg seeds) in a HEGE 11 seed treatment apparatus. A part of the seeds remained untreated (control). Two days after the treatment, the seeds were planted in Böhl, Palatine, Germany, in a loamy sand with a pH of 6.7, and a tilling depth of 30 cm. Nitrogen content following N-min analysis was 26 kg N per ha in 0 to 90 cm depth. 400 seeds per m^2 were sown in 1.86 m by 5.5 m plots. Row spacing was 13 cm and seeding depth 3 cm. The treatments were supplied with either standard amount of nitrogen (180 kg N/ha) or reduced amount of nitrogen (50 kg N/ha). 269 days after planting, the wheat grains were harvested and weighed.

For assay [2], the system named is Spring wheat (cultivar Triso). Briefly: Crop yield increase in spring wheat after seed treatment (field trial). The assay is classed as in vivo. The following applies: seed treatment 100 ml/100 kg seeds (Regent FS 500, 50 g per 100 kg seeds), harvest 130 days after planting.
Text: as §1
Spring wheat seeds (cultivar Triso) were treated with fipronil (used as commercially available product Regent FS 500; an FS formulation containing 500 g/l of active compound; 50 g per 100 kg seeds) in a HEGE 11 seed treatment apparatus. A part of the seeds remained untreated (control). Five days after the treatment, the seeds were planted near Gommersheim, Palatine, Germany, in a loamy sand with a pH of 6.7, and a tilling depth of 30 cm. Nitrogen content following N-min analysis was 52 kg N per ha in 0 to 90 cm depth. 400 seeds per m^2 were sown in 1.86 m by 5.5 m plots. Row spacing was 13 cm and seeding depth 3 cm. The treatments were supplied with either standard amount of nitrogen (140 kg N/ha) or reduced amount of nitrogen (30 kg N/ha). 130 days after planting, the wheat grains were harvested and weighed.

As for `N#Cc1nn(-c2c(Cl)cc(C(F)(F)F)cc2Cl)c(N)c1[S+]([O-])C(F)(F)F` (stereo not shown) [fipronil], the Crop yield in assay [1] (reduced nitrogen (50 kg N/ha), control 82.6) was found to be 86.1 dt/ha; in assay [1] (standard nitrogen (180 kg N/ha), control 87.4), 87.4 dt/ha; in assay [2] (reduced nitrogen (30 kg N/ha), control 47.0) it was 51.4 dt/ha; in assay [2] (standard nitrogen (140 kg N/ha), control 62.8) it was 63.2 dt/ha.
